Test results published in US20230000842A1, “METHODS OF TREATING CARTILAGE DISORDERS THROUGH INHIBITION OF CLK AND DYRK” (SAMUMED, LLC, priority 2019, published 2023).

Legend:
[1] = target: CLK3 kinase (Homo sapiens, UniProt P49761); assay: CLK3 kinase activity assay (Z-lyte FRET); type: biochemical; conditions: Z-lyte Ser/Thr 18 peptide, 156 μM ATP, 1 h at room temperature;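 also: kinase activity read as coumarin/fluorescein emission ratio by FRET, unphosphorylated peptide as 0% and phosphorylated peptide as 100% control, values from non-linear regression of dose-response curves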
[2] = target: CLK2 kinase (Homo sapiens, UniProt P49760); assay: CLK2 kinase activity assay (Z-lyte FRET); type: biochemical; conditions: Z-lyte Ser/Thr 6 peptide, 60 μM ATP, 1 h at room temperature;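 also: FRET read-out as coumarin to fluorescein emission ratio, unphosphorylated peptide as 0% and phosphorylated peptide as 100% controls, duplicate reactions, non-linear regression fit of dose-response curves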
[3] = test system: Wnt pathway activity (SW480 colon carcinoma cells stably expressing the Sp5-Luc reporter); assay: Wnt pathway activity screening assay (Sp5-Luc reporter gene assay); conditions: Homo sapiens, SW480, Table 4; SW480 cells stably expressing Sp5-Luc reporter, 10-point dose-response from 10 μM, 36 to 48 hours
[4] = test system: primary human mesenchymal stem cells (hMSCs); assay: Chondrogenesis screening using primary human mesenchymal stem cells; type: cell-based; conditions: Homo sapiens, Mesenchymal stem cells, hMSC chondrogenesis; for EC50: concentration required to induce 50% levels of chondrogenesis with TGF-β3 as positive control, read-out: Conc (nM) of 50% TGF-β3 activity; for Emax: maximum activity relative to TGF-β3 (10 ng/mL) positive control, read-out: Max. Activity as % TGF-β3 activity
Summary of the method: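 Primary hMSCs at passage 3–6 were treated across compound concentrations, with TGF-β3 as positive control. Chondrogenic nodule area per well was normalized to 3 DMSO wells on the same plate (fold over DMSO, 2–3 replicates). EC50, maximum activity and the dose reaching it were derived.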

Sequence of CLK3 kinase (P49761 whole entry): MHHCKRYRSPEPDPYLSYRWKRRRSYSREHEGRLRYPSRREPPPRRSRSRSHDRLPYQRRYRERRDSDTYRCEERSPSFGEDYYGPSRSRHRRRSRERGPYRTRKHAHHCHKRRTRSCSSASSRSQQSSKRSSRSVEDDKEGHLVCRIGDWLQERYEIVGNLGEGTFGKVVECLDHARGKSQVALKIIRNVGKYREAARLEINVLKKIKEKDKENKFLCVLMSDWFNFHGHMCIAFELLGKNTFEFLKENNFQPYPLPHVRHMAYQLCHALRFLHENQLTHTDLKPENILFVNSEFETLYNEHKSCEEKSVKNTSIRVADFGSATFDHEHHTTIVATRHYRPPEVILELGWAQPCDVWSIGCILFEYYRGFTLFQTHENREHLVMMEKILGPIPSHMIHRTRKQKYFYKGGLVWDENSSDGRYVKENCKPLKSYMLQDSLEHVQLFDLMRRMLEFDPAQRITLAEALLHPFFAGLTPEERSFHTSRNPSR
Sequence of CLK2 kinase (P49760 whole entry): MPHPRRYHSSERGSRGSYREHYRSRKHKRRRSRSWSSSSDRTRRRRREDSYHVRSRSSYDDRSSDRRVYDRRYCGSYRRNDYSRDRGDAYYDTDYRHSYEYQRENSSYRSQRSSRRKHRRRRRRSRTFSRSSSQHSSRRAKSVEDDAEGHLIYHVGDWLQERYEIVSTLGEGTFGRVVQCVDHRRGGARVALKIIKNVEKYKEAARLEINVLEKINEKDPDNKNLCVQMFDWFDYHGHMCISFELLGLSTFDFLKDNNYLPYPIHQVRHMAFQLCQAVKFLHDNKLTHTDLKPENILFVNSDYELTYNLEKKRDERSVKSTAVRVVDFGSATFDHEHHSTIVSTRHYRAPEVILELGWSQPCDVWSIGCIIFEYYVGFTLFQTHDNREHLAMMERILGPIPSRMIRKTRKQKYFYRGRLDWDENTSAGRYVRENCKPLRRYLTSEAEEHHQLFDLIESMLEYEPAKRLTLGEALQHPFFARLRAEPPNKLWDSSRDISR

EC50 [1] [nM] | EC50 [2] [nM] | EC50 [3] [nM] | EC50 [4] [nM] | Compound | Emax [4] [%]
340 | 19 | > 10000 | 300 | CN1CCN(c2ccnc3[nH]c(-c4n[nH]c5cnc(-c6cncc(CNCC7CCCC7)c6)cc45)cc23)CC1 [compound 489] | 150
1940 | 20 | 3890 | – | CN(C)Cc1cncc(-c2cc3c(-c4cc5c(N6CCN(C)CC6)nccc5[nH]4)n[nH]c3cn2)c1 [compound 491] | 13.9
885 | 12 | 9380 | – | CN1CCN(c2nccc3[nH]c(-c4n[nH]c5ccc(-c6cncc(CN7CCCC7)c6)cc45)cc23)CC1 [compound 492] | 31
912 | 6 | 4970 | 100 | CN1CCN(c2cccc3[nH]c(-c4n[nH]c5ccc(-c6cncc(CN7CCCCC7)c6)cc45)cc23)CC1 [compound 493] | 198
524 | 6 | 4160 | 10 | CN1CCN(c2nccc3[nH]c(-c4n[nH]c5ccc(-c6cncc(CN7CCCCC7)c6)nc45)cc23)CC1 [compound 496] | 70.8
678 | 5 | > 10000 | – | CN1CCN(c2ccnc3[nH]c(-c4n[nH]c5ncc(-c6cn[nH]c6)cc45)cc23)CC1 [compound 497] | 20.1
42 | 3 | 915 | – | CCCCC(=O)Nc1cncc(-c2ccc3[nH]nc(-c4cc5c(-c6ccoc6)cncc5[nH]4)c3c2)c1 [compound 499] | 122
117 | 12 | 890 | – | CC(C)(C)CC(=O)Nc1cncc(-c2ccc3[nH]nc(-c4cc5c(-c6ccoc6)ccnc5[nH]4)c3c2)c1 [compound 500] | 21.2
418 | 11 | > 10000 | 10 | O=C(CC1CCNCC1)Nc1cncc(-c2ccc3[nH]nc(-c4cc5c(-c6ccoc6)ccnc5[nH]4)c3n2)c1 [compound 501] | 102
336 | 14 | 3640 | – | c1cc(-c2ccoc2)c2cc(-c3n[nH]c4ccc(-c5cncc(CNCC6CCCC6)c5)nc34)[nH]c2c1 [compound 502] | 25.3
104 | 10 | 1000 | 30 | FC1(F)CCN(Cc2cncc(-c3cnc4[nH]nc(-c5cc6c(-c7ccoc7)cccc6[nH]5)c4c3)c2)C1 [compound 503] | 72.1
117 | 6 | 643 | – | COc1cncc(-c2ccc3[nH]nc(-c4cc5c(-c6ccoc6)nccc5[nH]4)c3c2)c1 [compound 504] | 35.5
217 | 4 | 1910 | – | c1ncc(-c2ccc3[nH]nc(-c4cc5c(-c6ccoc6)nccc5[nH]4)c3c2)cn1 [compound 505] | 40.2
392 | 8 | 572 | 10 | CC(C)CC(=O)Nc1cncc(-c2cc3c(-c4cc5c(-c6cccs6)nccc5[nH]4)n[nH]c3cn2)c1 [compound 506] | 81.4
60 | 10 | 473 | 100 | O=C(Nc1cncc(-c2cnc3[nH]nc(-c4cc5c(-c6cccs6)nccc5[nH]4)c3c2)c1)C1CCC1 [compound 507] | 82.2
68 | 7 | 578 | – | c1ccc(CNCc2cncc(-c3ccc4[nH]nc(-c5cc6c(-c7cccs7)cncc6[nH]5)c4c3)c2)cc1 [compound 508] | 57.4
140 | 6 | 3680 | 10 | c1csc(-c2nccc3[nH]c(-c4n[nH]c5cnc(-c6cncc(CN7CCCCC7)c6)cc45)cc23)c1 [compound 509] | 59
1870 | 16 | 3550 | 300 | c1csc(-c2ccnc3[nH]c(-c4n[nH]c5ccc(-c6cncc(OC7CCNCC7)c6)nc45)cc23)c1 [compound 510] | 51.4
50 | 6 | 407 | 100 | CN(C)CCNc1cc(F)cc(-c2cccc3[nH]c(-c4n[nH]c5cnc(-c6cncc(N)c6)cc45)cc23)c1 [compound 511] | 180

EC50 [1] [nM] | EC50 [2] [nM] | EC50 [3] [nM] | EC50 [4] [nM] | Compound | Emax [4] [%]
94 | 14 | > 10000 | 10 | CCCC(=O)Nc1cncc(-c2cc3c(-c4cc5c(-c6cc(F)cc(NCCN(C)C)c6)ccnc5[nH]4)n[nH]c3cn2)c1 [compound 512] | 162
49 | 6 | 386 | 10 | CN(C)CCNc1cc(F)cc(-c2ccnc3[nH]c(-c4n[nH]c5cnc(-c6cncc(NC(=O)C(C)(C)C)c6)cc45)cc23)c1 [compound 513] | 87.3
49 | 4 | 1270 | – | CN(C)CCNc1cc(F)cc(-c2ccnc3[nH]c(-c4n[nH]c5ccc(-c6cncc(CN7CCCCC7)c6)nc45)cc23)c1 [compound 514] | 48.5
109 | 5 | 405 | 10 | CN(C)CCNc1cc(F)cc(-c2cccc3[nH]c(-c4n[nH]c5cnc(-c6cncc(O)c6)cc45)cc23)c1 [compound 515] | 66.4
63 | 5 | 420 | 10 | CN(C)CCNc1cc(F)cc(-c2cccc3[nH]c(-c4n[nH]c5ccc(-c6cncnc6)nc45)cc23)c1 [compound 516] | 181
216 | 8 | 244 | – | CCC(=O)Nc1cncc(-c2ccc3[nH]nc(-c4cc5c(-c6cc(F)cc(CNS(C)(=O)=O)c6)cncc5[nH]4)c3c2)c1 [compound 517] | 29.4
39 | 7 | 1680 | – | CCCC(=O)Nc1cncc(-c2cnc3[nH]nc(-c4cc5c(-c6cc(F)cc(CNS(C)(=O)=O)c6)cncc5[nH]4)c3c2)c1 [compound 518] | 36.7
236 | 18 | > 10000 | – | CC(C)C(=O)Nc1cncc(-c2cnc3[nH]nc(-c4cc5c(-c6cc(F)cc(CNS(C)(=O)=O)c6)cncc5[nH]4)c3c2)c1 [compound 519] | 59.6
75 | 3 | > 10000 | 30 | CC(C)C(=O)Nc1cncc(-c2cc3c(-c4cc5c(-c6cc(F)cc(CNS(C)(=O)=O)c6)nccc5[nH]4)n[nH]c3cn2)c1 [compound 520] | 79.5
776 | 9 | > 10000 | 10 | CCCCC(=O)Nc1cncc(-c2cc3c(-c4cc5c(-c6cc(F)cc(CNS(C)(=O)=O)c6)nccc5[nH]4)n[nH]c3cn2)c1 [compound 521] | 111
48 | 8 | 1510 | 300 | CC(C)CC(=O)Nc1cncc(-c2cnc3[nH]nc(-c4cc5c(-c6cc(F)cc(CNS(C)(=O)=O)c6)nccc5[nH]4)c3c2)c1 [compound 522] | 52
81 | 9 | 2510 | – | CC(C)CC(=O)Nc1cncc(-c2cnc3[nH]nc(-c4cc5c(-c6cc(F)cc(CNS(C)(=O)=O)c6)cncc5[nH]4)c3c2)c1 [compound 523] | 45.5
198 | 15 | > 10000 | – | CC(C)CC(=O)Nc1cncc(-c2cc3c(-c4cc5c(-c6cc(F)cc(CNS(C)(=O)=O)c6)cncc5[nH]4)n[nH]c3cn2)c1 [compound 524] | 24.2
38 | 8 | 479 | – | CC(C)CC(=O)Nc1cncc(-c2ccc3[nH]nc(-c4cc5c(-c6cc(F)cc(CNS(C)(=O)=O)c6)nccc5[nH]4)c3n2)c1 [compound 525] | 33.1
140 | 4 | 1300 | 10 | CS(=O)(=O)NCc1cc(F)cc(-c2cncc3[nH]c(-c4n[nH]c5ccc(-c6cncc(NC(=O)C7CC7)c6)nc45)cc23)c1 [compound 526] | 82.9
66 | 11 | 554 | – | CS(=O)(=O)NCc1cc(F)cc(-c2cncc3[nH]c(-c4n[nH]c5ccc(-c6cncc(NC(=O)C7CCC7)c6)cc45)cc23)c1 [compound 527] | 14.5
59 | 5 | 3640 | 300 | CS(=O)(=O)NCc1cc(F)cc(-c2nccc3[nH]c(-c4n[nH]c5ncc(-c6cncc(NC(=O)C7CCC7)c6)cc45)cc23)c1 [compound 528] | 51.6
188 | 8 | > 10000 | – | CS(=O)(=O)NCc1cc(F)cc(-c2cncc3[nH]c(-c4n[nH]c5cnc(-c6cncc(NC(=O)C7CCC7)c6)cc45)cc23)c1 [compound 529] | 15.5
